The values that follow come from patent publication US10179141B2, “Certain chemical entities, compositions, and methods” (Suzhou NeuPharma Co., Ltd., priority 2010, dated 2019).

The structures appear in SMILES notation. Converted amounts (≈) assume the structure as drawn.

One data set relates to A549 cells. The experiment in a line: Inhibition of cell growth in tumor cells, MTT assay, A549. It is filed as cell-based. The note with it: Homo sapiens, 72 h compound exposure. The procedure: (§1) Inhibition of cell growth by compounds was measured using MTT assay (Mosmann, T., Journal of Immunological Methods, 1983, 65, 55-63). Tumor cell lines were purchased from ATCC (American Type Culture Collection, Manassas, Va.). All cell lines were maintained in RPMI 1640 (Hyclone) supplemented with 10% fetal bovine serum (FBS, Hyclone), glutamine (2 mM, Hyclone), and antibiotics (penicillin 100 U/mL and streptomycin 50 μg/mL) at 37° C. in a humidified atmosphere of 5% CO2 in air. Taxol (positive control, Sigma) and compounds were dissolved in DMSO (Sigma), and the final concentration of DMSO in the medium was 1%. Tumor cells were plated in 96-well plates at densities from 4000 cells/well of a 96-well plate and allowed to adhere/grow for 24 h. They were then treated with various concentrations of drug for 72 h. 3-(4,5-Dimethylthiazol-2-yl)-2,5-diphenyltetrazolium bromide (MTT, Sigma) was used to determine the number of viable cells at the time of compound addition and the number of cells remaining after 72 h compound exposure. The number of cells remaining after 72 h was compared to the number of viable cells at the time of compound addition by measuring the absorbance at 570 nm, allowing for the calculation of growth inhibition.
(§2) All concentrations of compounds were tested in triplicate and controls were averaged over 4 wells. IC50 was calculated by plotting the concentration of compound vs the percentage of inhibition in treated wells using GraphPad Prism 5.
A general note: Formazan colour is commonly taken as a measure of viable cells.

Data set [1] is described as follows: Measurement of equilibrium solubility in aqueous buffer (HPLC UV). The note with it: aqueous NaOAc/AcOH buffer, thermodynamic from solid, NaOAc/AcOH buffer (100 mM, pH 5.0), shaken at rt for 24 h. The format is physicochemical. How it is done: The equilibrium solubility of compounds is measured in aqueous buffer. Excess amount of solid compound is added into buffer solution and the sample is briefly sonicated and then shaken at rt for 24 h. The sample is filtered and the concentration is analyzed by HPLC UV. A standard solution at 0.2 mg/mL was prepared in methanol or acetonitrile for each compound and used as an external standard for quantification. Data for bufalin and four of the compounds specifically described herein in NaOAc/AcOH buffer (100 mM, pH 5.0) is shown below.

In a further data set the test system is Bcap-37 cells. The experiment in a line: Inhibition of cell growth in tumor cells, MTT assay, Bcap-37. The note with it: Homo sapiens, Bcap37, 72 h compound exposure. The format is cell-based. How it is done:
as §1, §2

The next data set deals with tumor xenografts. The experiment in a line: Inhibition of tumor growth in xenograft model. The format is in vivo, BALB/c female nude mice. The note with it: 10 mg/kg, Q4D × 3, i.v. How it is done:
Cells were implanted in BALB/c female nude mice and grown as tumor xenografts. When tumors achieved 150-200 mm^3, mice were assigned into treatment and control groups using randomized block design based upon their tumor volumes. Each group contained 10 tumor-bearing mice. Tumors were measured twice weekly in two dimensions using a caliper, and the tumor volume was calculated from two-dimensional measurements using the equation V=0.5×a×b^2 where a and b are the long and short diameters of the tumor, respectively. The tumor volume was then used for calculations of T/C values. The T/C value was an indication of antitumor effectiveness; T and C were the mean volume of the treated and control groups, respectively, on a given day.

For `C[C@]12CC[C@H](OC(=O)NCCCC(=O)O)C[C@H]1CC[C@@H]1[C@@H]2CC[C@]2(C)[C@@H](c3ccc(=O)oc3)CC[C@]12O` [4-(((((3S,5R,8R,9S,10S,13R,14S,17R)-14-hydroxy-10,13-dimethyl-17-(2-oxo-2H-pyran-5-yl)hexadecahydro-1H-cyclopenta[a]phenanthren-3-yl)oxy)carbonyl)amino)butanoic Acid], the IC50 with A549 cells worked out at 0.06 µM.

Take `C[C@]12CC[C@H](OC(=O)OCCN3CCCC3)C[C@H]1CC[C@@H]1[C@@H]2CC[C@]2(C)[C@@H](c3ccc(=O)oc3)CC[C@]12O` [(3S,5R,8R,9S,10S,13R,14S,17R)-14-hydroxy-10,13-dimethyl-17-(2-oxo-2H-pyran-5-yl)hexadecahydro-1H-cyclopenta[a]phenanthren-3-yl (2-(pyrrolidin-1-yl)ethyl) carbonate]: the solubility at 24 h in data set [1] came out at 710 µg/mL (≈ 1350 µM). Further, in the data set on Bcap-37 cells, it took 0.0106 µM to reach half-maximal inhibition (IC50).

The molecule `C[C@]12CC[C@H](OC(=O)NCCN3CCCC3)C[C@H]1CC[C@@H]1[C@@H]2CC[C@]2(C)[C@@H](c3ccc(=O)oc3)CC[C@]12O` [(3S,5R,8R,9S,10S,13R,14S,17R)-14-hydroxy-10,13-dimethyl-17-(2-oxo-2H-pyran-5-yl)hexadecahydro-1H-cyclopenta[a]phenanthren-3-yl (2-(pyrrolidin-1-yl)ethyl)carbamate] returned a solubility at 24 h in data set [1] of 1040 µg/mL (≈ 1970 µM). The IC50 in the data set with A549 cells is 0.0028 µM; in the data set on Bcap-37 cells it was 0.0053 µM.

In the data set on A549 cells, `C[C@]12CC[C@H](OC(=O)OCCN3CCOCC3)C[C@H]1CC[C@@H]1[C@@H]2CC[C@]2(C)[C@@H](c3ccc(=O)oc3)CC[C@]12O` [(3S,5R,8R,9S,10S,13R,14S,17R)-14-hydroxy-10,13-dimethyl-17-(2-oxo-2H-pyran-5-yl)hexadecahydro-1H-cyclopenta[a]phenanthren-3-yl (2-morpholinoethyl) carbonate] came in with an IC50 of 0.0122 µM.

The molecule `C[C@]12CC[C@H](OC(=O)NCCN3CCOCC3)C[C@H]1CC[C@@H]1[C@@H]2CC[C@]2(C)[C@@H](c3ccc(=O)oc3)CC[C@]12O` [(3S,5R,8R,9S,10S,13R,14S,17R)-14-hydroxy-10,13-dimethyl-17-(2-oxo-2H-pyran-5-yl)hexadecahydro-1H-cyclopenta[a]phenanthren-3-yl (2-morpholinoethyl)carbamate] displayed an IC50 with A549 cells of 0.0074 µM.

For `C[C@]12CC[C@H](OC(=O)N3CCOCC3)C[C@H]1CC[C@@H]1[C@@H]2CC[C@]2(C)[C@@H](c3ccc(=O)oc3)CC[C@]12O` [(3S,5R,8R,9S,10S,13R,14S,17R)-14-hydroxy-10,13-dimethyl-17-(2-oxo-2H-pyran-5-yl)hexadecahydro-1H-cyclopenta[a]phenanthren-3-yl morpholine-4-carboxylate], the IC50 with Bcap-37 cells amounted to 0.223 µM.

As for `C[C@]12CC[C@H](OC(=O)N3CCNCC3)C[C@H]1CC[C@@H]1[C@@H]2CC[C@]2(C)[C@@H](c3ccc(=O)oc3)CC[C@]12O` [(3S,5R,8R,9S,10S,13R,14S,17R)-14-hydroxy-10,13-dimethyl-17-(2-oxo-2H-pyran-5-yl)hexadecahydro-1H-cyclopenta[a]phenanthren-3-yl piperazine-1-carboxylate], the solubility at 24 h in data set [1] was found to be 840 µg/mL (≈ 1680 µM). Also, in the data set on A549 cells, the IC50 is 0.0018 µM.

With `CC(C)[C@@H](N)C(=O)O[C@H]1CC[C@@]2(C)[C@H](CC[C@@H]3[C@@H]2CC[C@]2(C)[C@@H](c4ccc(=O)oc4)CC[C@]32O)C1` [(R)-(3S,5R,8R,9S,10S,13R,14S,17R)-14-hydroxy-10,13-dimethyl-17-(2-oxo-2H-pyran-5-yl)hexadecahydro-1H-cyclopenta[a]phenanthren-3-yl 2-amino-3-methylbutanoate], in the data set with A549 cells, the IC50 was determined as 0.147 µM.

The molecule `CC(C)C[C@@H](N)C(=O)O[C@H]1CC[C@@]2(C)[C@H](CC[C@@H]3[C@@H]2CC[C@]2(C)[C@@H](c4ccc(=O)oc4)CC[C@]32O)C1` [(R)-(3S,5R,8R,9S,10S,13R,14S,17R)-14-hydroxy-10,13-dimethyl-17-(2-oxo-2H-pyran-5-yl)hexadecahydro-1H-cyclopenta[a]phenanthren-3-yl 2-amino-4-methylpentanoate] registered an IC50 in the data set with A549 cells of 0.0588 µM.

Turning to `C[C@@H](N)C(=O)O[C@H]1CC[C@@]2(C)[C@H](CC[C@@H]3[C@@H]2CC[C@]2(C)[C@@H](c4ccc(=O)oc4)CC[C@]32O)C1` [(R)-(3S,5R,8R,9S,10S,13R,14S,17R)-14-hydroxy-10,13-dimethyl-17-(2-oxo-2H-pyran-5-yl)hexadecahydro-1H-cyclopenta[a]phenanthren-3-yl 2-aminopropanoate], it took 0.0034 µM to reach half-maximal inhibition in the data set on A549 cells (IC50).

`CC(C)[C@H](N)C(=O)O[C@H]1CC[C@@]2(C)[C@H](CC[C@@H]3[C@@H]2CC[C@]2(C)[C@@H](c4ccc(=O)oc4)CC[C@]32O)C1` [(S)-(3S,5R,8R,9S,10S,13R,14S,17R)-14-hydroxy-10,13-dimethyl-17-(2-oxo-2H-pyran-5-yl)hexadecahydro-1H-cyclopenta[a]phenanthren-3-yl 2-amino-3-methylbutanoate] showed a solubility at 24 h in data set [1] of 120 µg/mL (≈ 247 µM). Besides, half-maximal inhibition in the data set on Bcap-37 cells (IC50) required 0.0489 µM.

For `CC(C)C[C@H](N)C(=O)O[C@H]1CC[C@@]2(C)[C@H](CC[C@@H]3[C@@H]2CC[C@]2(C)[C@@H](c4ccc(=O)oc4)CC[C@]32O)C1` [(S)-(3S,5R,8R,9S,10S,13R,14S,17R)-14-hydroxy-10,13-dimethyl-17-(2-oxo-2H-pyran-5-yl)hexadecahydro-1H-cyclopenta[a]phenanthren-3-yl 2-amino-4-methylpentanoate], the concentration for half-maximal inhibition (IC50) in the data set with A549 cells was found to be 0.0151 µM. This lies in the double-digit nanomolar range.

`C[C@H](N)C(=O)O[C@H]1CC[C@@]2(C)[C@H](CC[C@@H]3[C@@H]2CC[C@]2(C)[C@@H](c4ccc(=O)oc4)CC[C@]32O)C1` [(S)-(3S,5R,8R,9S,10S,13R,14S,17R)-14-hydroxy-10,13-dimethyl-17-(2-oxo-2H-pyran-5-yl)hexadecahydro-1H-cyclopenta[a]phenanthren-3-yl 2-aminopropanoate]: in the data set with Bcap-37 cells, it took 0.0159 µM to reach half-maximal inhibition (IC50). That is a double-digit nanomolar value.

Consider `C[C@]12CCC(O)C[C@H]1CC[C@@H]1[C@@H]2CC[C@]2(C)[C@@H](c3ccc(=O)oc3)CC[C@]12O` (some centres unmarked) [Bufalin, reference compound], for which the solubility at 24 h in data set [1] was determined as 41 µg/mL (≈ 106 µM). In addition, the IC50 worked out at 0.0044 µM with A549 cells and 0.014 µM with Bcap-37 cells.

`CC(=O)O[C@H]1C(=O)[C@@]2(C)[C@H]([C@H](OC(=O)c3ccccc3)[C@]3(O)C[C@H](OC(=O)[C@H](O)[C@@H](NC(=O)c4ccccc4)c4ccccc4)C(C)=C1C3(C)C)[C@]1(OC(C)=O)CO[C@@H]1C[C@@H]2O` [Paclitaxel] yielded a T/C in the data set with tumor xenografts (mean tumor volume treated/control) of 74.6%. In addition, in the data set on tumor xenografts (nude mouse xenograft), the “Tumor Volume Post-treatment” value stood at 391 ± 43 mm^3.

Usually IC50 stands for the concentration at which inhibition is half-maximal. Read a low IC50 as greater potency in that assay. Broadly, the solubility is the concentration that dissolves in the medium under given conditions. A word on the T/C: it is the ratio of treated to control.
